The text below walks through data of patent US20060025481A1, “Process for preparation of probucol derivatives and polymorphic forms thereof” (priority 2004, published 2006).

The structures appear in SMILES notation.

Data set [1] is described as follows: Hygroscopicity of the crystalline polymorphic forms. Format: physicochemical. As to conditions: crystalline solid form.
A short description of data set [2]: Solid-state stability of the polymorphic forms.
For data set [3] the following is noted: cited from earlier work.

For the molecule `CC(C)(Sc1cc(C(C)(C)C)c(O)c(C(C)(C)C)c1)Sc1cc(C(C)(C)C)c(OCC(=O)O)c(C(C)(C)C)c1` [Form A], the hygroscopicity result in data set [1] is “nonhygroscopic”. For the molecule `CCC(Oc1c(C(C)(C)C)cc(SC(C)(C)Sc2cc(C(C)(C)C)c(O)c(C(C)(C)C)c2)cc1C(C)(C)C)C(=O)O` (stereo not drawn) [Form Al], in data set [2], the “stability of polymorphic form” value is given as “acceptable stability”. For `CC(C)(Sc1cc(C(C)(C)C)c(O)c(C(C)(C)C)c1)Sc1cc(C(C)(C)C)c(O)c(C(C)(C)C)c1` [probucol, 4,4′-(isopropylidenedithio) bis[2,6-di-tert-butylphenol]], the solubility in water result in data set [3] is reported as “minimally soluble in water”.
